Laboratory results from ChEMBL document CHEMBL4814018, “Rationally designed TNF-α inhibitors: Identification of promising cytotoxic agents” (Bioorg Med Chem Lett, 2021).
The source made the active and inactive calls. The rule behind the calls is not given here.

Columns and labels:
NCI-H226 [1] = test: Growth inhibition of human NCI-H226 cells incubated for 48 hrs by sulforhodamine B assay; type: functional
MDA-MB-468 [2] = test: Growth inhibition of human MDA-MB-468 cells incubated for 48 hrs by sulforhodamine B assay; type: functional
OVCAR-4 [3] = test: Growth inhibition of human OVCAR-4 cells at 10 uM incubated for 48 hrs by sulforhodamine B assay relative to control; type: functional; settings: read-out: GI
SK-MEL-2 [4] = test: Growth inhibition of human SK-MEL-2 cells at 10 uM incubated for 48 hrs by sulforhodamine B assay relative to control; type: functional; settings: read-out: GI
BV-2 [5] = test: Antiinflammatory activity against mouse BV2 cells assessed as reduction in LPS-induced IL6 production at 1 uM by enzyme immunoassay; type: functional, cell-based
SW-620 [6] = test: Growth inhibition of human SW-620 cells at 10 uM incubated for 48 hrs by sulforhodamine B assay relative to control; type: functional; settings: read-out: GI
MDA-MB-468 [7] = test: Growth inhibition of human MDA-MB-468 cells at 10 uM incubated for 48 hrs by sulforhodamine B assay relative to control; type: functional; settings: read-out: GI
T47D [8] = test: Growth inhibition of human T47D cells at 10 uM incubated for 48 hrs by sulforhodamine B assay relative to control; type: functional; settings: read-out: GI
UACC-62 [9] = test: Growth inhibition of human UACC-62 cells incubated for 48 hrs by sulforhodamine B assay; type: functional
RPMI-8226 [10] = test: Growth inhibition of human RPMI8226 cells at 10 uM incubated for 48 hrs by sulforhodamine B assay relative to control; type: functional; settings: read-out: GI
SK-MEL-2 [11] = test: Growth inhibition of human SK-MEL-2 cells incubated for 48 hrs by sulforhodamine B assay; type: functional
SF-295 [12] = test: Growth inhibition of human SF-295 cells incubated for 48 hrs by sulforhodamine B assay; type: functional
MCF7 [13] = test: Growth inhibition of human MCF7 cells incubated for 48 hrs by sulforhodamine B assay; type: functional
BV-2 [14] = test: Cytotoxicity against mouse BV2 cells incubated for 48 hrs by MTT assay; type: cell-based; settings: BV-2, 48 h
CAKI-1 [15] = test: Growth inhibition of human CAKI-1 cells incubated for 48 hrs by sulforhodamine B assay; type: functional
IGROV-1 [16] = test: Growth inhibition of human IGROV-1 cells incubated for 48 hrs by sulforhodamine B assay; type: functional
T47D [17] = test: Growth inhibition of human T47D cells incubated for 48 hrs by sulforhodamine B assay; type: functional
SR [18] = test: Growth inhibition of human SR cells at 10 uM incubated for 48 hrs by sulforhodamine B assay relative to control; type: functional; settings: read-out: GI
CAKI-1 [19] = test: Growth inhibition of human CAKI-1 cells at 10 uM incubated for 48 hrs by sulforhodamine B assay relative to control; type: functional; settings: read-out: GI
UACC-62 [20] = test: Growth inhibition of human UACC-62 cells at 10 uM incubated for 48 hrs by sulforhodamine B assay relative to control; type: functional; settings: read-out: GI
K562 [21] = test: Growth inhibition of human K562 cells at 10 uM incubated for 48 hrs by sulforhodamine B assay relative to control; type: functional; settings: read-out: GI
OVCAR-5 [22] = test: Growth inhibition of human OVCAR-5 cells incubated for 48 hrs by sulforhodamine B assay; type: functional
HOP-92 [23] = test: Growth inhibition of human HOP-92 cells at 10 uM incubated for 48 hrs by sulforhodamine B assay relative to control; type: functional; settings: read-out: GI
MCF7 [24] = test: Growth inhibition of human MCF7 cells at 10 uM incubated for 48 hrs by sulforhodamine B assay relative to control; type: functional; settings: read-out: GI
BV-2 [25] = test: Antiinflammatory activity against mouse BV2 cells assessed as decrease in LPS-induced NO production at 1 to 5 uM pretreated with compound followed by LPS stimulation incubated for 4 to 48 hrs by enzyme immunoassay; type: functional, cell-based; settings: dose 1-5 µM, time 4-48 hrs
OVCAR-3 [26] = test: Growth inhibition of human OVCAR-3 cells incubated for 48 hrs by sulforhodamine B assay; type: functional
NCI-H460 [27] = test: Growth inhibition of human NCI-H460 cells at 10 uM incubated for 48 hrs by sulforhodamine B assay relative to control; type: functional; settings: read-out: GI
MDA-MB-231 [28] = test: Growth inhibition of human MDA-MB-231 cells incubated for 48 hrs by sulforhodamine B assay; type: functional
HCT-116 [29] = test: Growth inhibition of human HCT-116 cells at 10 uM incubated for 48 hrs by sulforhodamine B assay relative to control; type: functional; settings: read-out: GI
UACC-257 [30] = test: Growth inhibition of human UACC-257 cells at 10 uM incubated for 48 hrs by sulforhodamine B assay relative to control; type: functional; settings: read-out: GI
HOP-62 [31] = test: Growth inhibition of human HOP-62 cells incubated for 48 hrs by sulforhodamine B assay; type: functional
[32] = Therapeutic index, ratio of LC50 for human Panel NCI-60 (60 carcinoma cell lines) to GI50 for human Panel NCI-60 (60 carcinoma cell lines); type: functional
SR [33] = test: Growth inhibition of human SR cells incubated for 48 hrs by sulforhodamine B assay; type: functional
MDA-MB-231 [34] = test: Growth inhibition of human MDA-MB-231 cells at 10 uM incubated for 48 hrs by sulforhodamine B assay relative to control; type: functional; settings: read-out: GI
HCT-116 [35] = test: Growth inhibition of human HCT-116 cells incubated for 48 hrs by sulforhodamine B assay; type: functional
U-251 [36] = test: Growth inhibition of human U-251 cells incubated for 48 hrs by sulforhodamine B assay; type: functional
SW-620 [37] = test: Growth inhibition of human SW-620 cells incubated for 48 hrs by sulforhodamine B assay; type: functional
HOP-62 [38] = test: Growth inhibition of human HOP-62 cells at 10 uM incubated for 48 hrs by sulforhodamine B assay relative to control; type: functional; settings: read-out: GI
UACC-257 [39] = test: Growth inhibition of human UACC-257 cells incubated for 48 hrs by sulforhodamine B assay; type: functional
NCI-H226 [40] = test: Growth inhibition of human NCI-H226 cells at 10 uM incubated for 48 hrs by sulforhodamine B assay relative to control; type: functional; settings: read-out: GI
RPMI-8226 [41] = test: Growth inhibition of human RPMI-8226 cells incubated for 48 hrs by sulforhodamine B assay; type: functional; settings: dose 10 µM
UO-31 [42] = test: Growth inhibition of human UO-31 cells at 10 uM incubated for 48 hrs by sulforhodamine B assay relative to control; type: functional; settings: read-out: GI
IGROV-1 [43] = test: Growth inhibition of human IGROV-1 cells at 10 uM incubated for 48 hrs by sulforhodamine B assay relative to control; type: functional; settings: read-out: GI
UO-31 [44] = test: Growth inhibition of human UO-31 cells incubated for 48 hrs by sulforhodamine B assay; type: functional
OVCAR-3 [45] = test: Growth inhibition of human OVCAR-3 cells at 10 uM incubated for 48 hrs by sulforhodamine B assay relative to control; type: functional; settings: read-out: GI
U-251 [46] = test: Growth inhibition of human U-251 cells at 10 uM incubated for 48 hrs by sulforhodamine B assay relative to control; type: functional; settings: read-out: GI
NCI-H460 [47] = test: Growth inhibition of human NCI-H460 cells incubated for 48 hrs by sulforhodamine B assay; type: functional
SF-295 [48] = test: Growth inhibition of human SF-295 cells at 10 uM incubated for 48 hrs by sulforhodamine B assay relative to control; type: functional; settings: read-out: GI
TK-10 [49] = test: Growth inhibition of human TK-10 cells incubated for 48 hrs by sulforhodamine B assay; type: functional
K562 [50] = test: Growth inhibition of human K562 cells incubated for 48 hrs by sulforhodamine B assay; type: functional
OVCAR-5 [51] = test: Growth inhibition of human OVCAR-5 cells at 10 uM incubated for 48 hrs by sulforhodamine B assay relative to control; type: functional; settings: read-out: GI
TK-10 [52] = test: Growth inhibition of human TK-10 cells at 10 uM incubated for 48 hrs by sulforhodamine B assay relative to control; type: functional; settings: read-out: GI
BV-2 [53] = test: Antiinflammatory activity against mouse BV2 cells assessed as inhibition of LPS-induced TNFalpha production at 1 uM by enzyme immunoassay; type: functional
[54] = tested on: Panel NCI-60 (60 carcinoma cell lines); test: Growth inhibition of human Panel NCI-60 (60 carcinoma cell lines) incubated for 48 hrs by sulforhodamine B assay; type: functional
HOP-92 [55] = test: Growth inhibition of human HOP-92 cells incubated for 48 hrs by sulforhodamine B assay; type: functional
OVCAR-4 [56] = test: Growth inhibition of human OVCAR-4 cells incubated for 48 hrs by sulforhodamine B assay; type: functional
[57] = read-out: LC50 (the source's name)

Compound O=C1COCCN1c1ccc(NCc2cn(Cc3ccc(F)cc3)c3ccccc23)cc1 has a GI50 (NCI-H226 [1]) of 40 nM, a CC50 (NCI-H226 [1]; [57]) of 1100 nM and a GI50 (MDA-MB-468 [2]) of 20 nM. It also gave a CC50 (MDA-MB-468 [2]; [57]) of 500 nM, an inhibition of growth at 10 µM (OVCAR-4 [3]) of 100% and an inhibition of growth at 10 µM (SK-MEL-2 [4]) of 100%. For the same compound, the Activity (BV-2 [5]) was “Active”, the inhibition of growth at 10 µM (SW-620 [6]) was 87% and the inhibition of growth at 10 µM (MDA-MB-468 [7]) was 100%. The inhibition of growth at 10 µM (T47D [8]) was 99%, the GI50 (UACC-62 [9]) was 40 nM and the CC50 (UACC-62 [9]; [57]) was 800 nM. The inhibition of growth at 10 µM (RPMI-8226 [10]) was 98%, the GI50 (SK-MEL-2 [11]) was 1200 nM and the GI50 (SF-295 [12]) was 1090 nM. The GI50 (MCF7 [13]) was 110 nM, the IC50 (BV-2 [14]) was > 10 µM and the GI50 (CAKI-1 [15]) was 20 nM. For the same compound, the CC50 (CAKI-1 [15]; [57]) was > 100 µM, the GI50 (IGROV-1 [16]) was 30 nM and the CC50 (IGROV-1 [16]; [57]) was > 100 µM. The GI50 (T47D [17]) was 70 nM, the inhibition of growth at 10 µM (SR [18]) was 68% and the inhibition of growth at 10 µM (CAKI-1 [19]) was 100%. The inhibition of growth at 10 µM (UACC-62 [20]) was 100%, the inhibition of growth at 10 µM (K562 [21]) was 89% and the GI50 (OVCAR-5 [22]) was 40 nM. The CC50 (OVCAR-5 [22]; [57]) was > 100 µM, the inhibition of growth at 10 µM (HOP-92 [23]) was 96% and the inhibition of growth at 10 µM (MCF7 [24]) was 100%. The Activity (BV-2 [25]) was “Active”, the GI50 (OVCAR-3 [26]) was 280 nM and the inhibition of growth at 10 µM (NCI-H460 [27]) was 93%. It also gave a GI50 (MDA-MB-231 [28]) of 3.8 µM, an inhibition of growth at 10 µM (HCT-116 [29]) of 96% and an inhibition of growth at 10 µM (UACC-257 [30]) of 100%. The GI50 (HOP-62 [31]) was 1470 nM, the TI [32] was 54 and the GI50 (SR [33]) was 4.5 µM. For the same compound, the inhibition of growth at 10 µM (MDA-MB-231 [34]) was 72%, the GI50 (HCT-116 [35]) was 50 nM and the CC50 (HCT-116 [35]; [57]) was > 100 µM. It also gave a GI50 (U-251 [36]) of 1410 nM, a GI50 (SW-620 [37]) of 480 nM and an inhibition of growth at 10 µM (HOP-62 [38]) of 77%. The GI50 (UACC-257 [39]) was 200 nM, the inhibition of growth at 10 µM (NCI-H226 [40]) was 100% and the GI50 (RPMI-8226 [41]) was 540 nM. For the same compound, the inhibition of growth at 10 µM (UO-31 [42]) was 96%, the inhibition of growth at 10 µM (IGROV-1 [43]) was 100% and the GI50 (UO-31 [44]) was 2750 nM. For the same compound, the inhibition of growth at 10 µM (OVCAR-3 [45]) was 100%, the inhibition of growth at 10 µM (U-251 [46]) was 80% and the GI50 (NCI-H460 [47]) was 120 nM. The inhibition of growth at 10 µM (SF-295 [48]) was 90%, the GI50 (TK-10 [49]) was 40 nM and the CC50 (TK-10 [49]; [57]) was > 100 µM. For the same compound, the GI50 (K562 [50]) was 1510 nM, the inhibition of growth at 10 µM (OVCAR-5 [51]) was 100% and the inhibition of growth at 10 µM (TK-10 [52]) was 100%. For the same compound, the Activity (BV-2 [53]) was “Active”, the GI50 [54] was 1310 nM and the TGI [54] was 15.1 µM. The CC50 [54, 57] was 70.8 µM, the GI50 (HOP-92 [55]) was 1540 nM and the GI50 (OVCAR-4 [56]) was 150 nM.
